The text below walks through data of patent publication US10947196B2, “Beta adrenergic agonist and methods of using the same” (CURASEN THERAPEUTICS, INC., priority 2019, dated 2021).

Where two headings read alike, the source gives them in different places.

Series [1] in a line: Microsomal stability (dog). In kind it is in vitro ADME. The following applies: liver microsomes 0.5 mg/mL; method gives CLint in μL/min/mg protein. As to the method: The master solution was prepared as follows.
With NADPH: 10 μL of 20 mg/mL liver microsomes and 40 μL of 10 mM NADPH were added to the incubations. The final concentrations of microsomes and NADPH were 0.5 mg/mL and 1 mM, respectively.
Without NADPH: 10 μL of 20 mg/mL liver microsomes and 40 μL of ultra-pure H2O were added to the incubations. The final concentration of microsomes was 0.5 mg/mL.
The reaction was started with the addition of 4 μL of 3, 10, 30 and 100 μM test compound solution or control compound solution at the final concentration of 0.03, 0.1, 0.3 and 1 μM and carried out at 37° C.
Aliquots of 50 μL were taken from the reaction solution at 0, 15, 30, 45 and 60 min. The reaction was stopped by the addition of 4 volumes of cold acetonitrile with IS (100 nM alprazolam, 200 nM labetalol, 200 nM caffeine and 2 μM ketoprofen). Samples were centrifuged at 3, 220 g for 40 minutes. Aliquot of 100 μL of the supernatant was mixed with 100 μL of ultra-pure H2O and then used for LC-MS/MS analysis.
Peak areas were determined from extracted ion chromatograms. The slope value, k, was determined by linear regression of the natural logarithm of the remaining percentage of the parent drug vs. incubation time curve.
The in vitro half-life (in vitro t1/2) was determined from the slope value: in vitro t1/2=−(0.693/k) […]
On the technique in general: Microsomes from liver hold many membrane-bound enzymes, among them those of drug oxidation.

The nature of series [2]: Hepatocyte stability (monkey). In kind it is in vitro ADME. The following applies: 0.5×10^6 viable cells/mL. As to the method: (§1) 10 mM and 100 μM stock solutions of test compound(s) and a positive control were prepared in appropriate solvent (DMSO). In separate conical tubes, the 10 mM test compound and the positive control were diluted to 100 μM by combining 198 μL of 50% acetonitrile/50% water and 2 μL of 10 mM stock. The 100 μM test compound and the positive control were diluted to 30 μM by combining 140 μL of 50% acetonitrile/50% water and 60 μL of 100 μM stock solution. The 100 μM test compound and the positive control were diluted to 10 μM by combining 180 μL of 50% acetonitrile/50% water and 20 μL of 100 μM stock solution. The 100 μM test compound and the positive control were diluted to 3 μM by combining 194 μL of 50% acetonitrile/50% water and 6 μL of 100 μM stock solution.
(§2) Incubation medium (William's E Medium supplemented with GlutaMAX) and hepatocyte thawing medium was placed in a 37° C. water bath, and allowed to warm for at least 15 minutes prior to use. […]
(§3) Using AOPI staining solution, cells were counted and the viable cell density was determined. […]
(§4) All calculations were carried out using Microsoft Excel. Peak areas were determined from extracted ion chromatograms. […]
(§5) The in vitro half-life (in vitro t1/2) was determined from the slope value: in vitro t1/2=0.693/k

Series [3] can be described thus: Hepatocyte stability (mouse). In kind it is in vitro ADME. The following applies: 0.5×10^6 viable cells/mL. As to the method: as §1, §2, §3, §4, §5
The target in a further series is B3-AR (Homo sapiens (Human), UniProt P13945). As to the kind of experiment: cAMP potency assay, B3-AR expressing CHO-K1 cells. The series is classed as cell-based.
Where [4] appears, read: read-out: Average pEC50 [Receptor subtype: B3-AR, Cell type: CHO-K1] (converted).

B3-AR, sequence (P13945 whole entry, species assumed): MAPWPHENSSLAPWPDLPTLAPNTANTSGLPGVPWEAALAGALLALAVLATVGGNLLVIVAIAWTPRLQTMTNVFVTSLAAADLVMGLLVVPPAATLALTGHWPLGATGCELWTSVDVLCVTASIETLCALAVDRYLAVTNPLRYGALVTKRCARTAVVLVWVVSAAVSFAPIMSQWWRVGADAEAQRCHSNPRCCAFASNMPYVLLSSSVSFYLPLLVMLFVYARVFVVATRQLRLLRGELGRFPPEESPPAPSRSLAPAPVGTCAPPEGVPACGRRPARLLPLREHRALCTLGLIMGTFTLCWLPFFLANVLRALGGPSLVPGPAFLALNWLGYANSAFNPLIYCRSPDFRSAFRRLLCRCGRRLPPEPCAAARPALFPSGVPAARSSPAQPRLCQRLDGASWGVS

Regarding `CC(C)(C)NC[C@H](O)c1cccc(C(F)(F)F)n1` [Compound 03-3], the Intrinsic clearance (CLint), dog liver microsomes in series [1] was determined as 7.99 µL/min/mg protein.

Compound `CC(C)(C)NC[C@H](O)c1cccc(C#N)n1` [Compound 03-5, (S)-6-(2-(tert-butylamino)-1-hydroxyethyl)picolinonitrile] gave an Intrinsic clearance (CLint), dog liver microsomes in series [1] of 4.32 µL/min/mg protein. In addition, the “Hepatocyte stability, Monkey” value in series [2] came out at 1.88 μL/min/10^6 cells. The “Hepatocyte stability, Mouse” value in series [3] turned out to be 1.46 μL/min/10^6 cells. Further, the EC50 is 100 to 1000 nM at B3-AR (read-out: Average EC50 [Receptor subtype: B3-AR, Cell type: CHO-K1]) and more than 1000 nM at B3-AR (setting [4]).

For the compound `Cc1ncccc1[C@@H](O)CNC(C)(C)C` [Compound 03-115], the “Hepatocyte stability, Monkey” value in series [2] is reported as 1.26 μL/min/10^6 cells. Moreover, in series [3], the “Hepatocyte stability, Mouse” value was 1.08 μL/min/10^6 cells. Moreover, at B3-AR (setting [4]), the EC50 is more than 1000 nM.
